Where a name gives a salt, the structure may show the parent alone. Marks after values point to notes of the source that are not given here.
Columns and labels:
human SSTR4 = molecular target: T1, human SSTR4 (Homo sapiens, UniProt P31391); assay: cell-based human SSTR4 cAMP assay (agonist activity); conditions: SSTR4, EC50 (nM), Flp-In-CHO-SSTR4 stable pool, Forskolin-stimulated cAMP
T1 construct: expressed in transfected cells
Description: Purpose of test: A cell-based human SSTR4 cAMP assay was used to determine the agonistic effect of the test compound on an SSTR 4 receptor.
Cell culture and reagent preparation: cell line: Flp-In-CHO-SSTR4 stable pool; complete medium: Ham’s F-12 K + 10% FBS + 1 × penicillin-streptomycin (PS) + 600 µg/ml hygromycin B; cell seeding medium: Ham’s F-12K + 10% FBS; assay buffer: 1 × HBSS + 20 mM HEPES + 0.1%BSA + 500 uM IBMX.
The Flp-In-CHO-SSTR 4 stable pool cell line was cultured in a complete medium at 37° C., 5% CO2 until a confluency of 70% to 90%.
After TrypLE digestion, the cells were resuspended in the seeding medium and seeded in a 384-well cell culture plate (384 PE culture plate), with 7,000 cells per well, and were cultured overnight at 37° C., 5% CO2.
The cell culture plate was taken out, inverted at 200 g at room temperature for 5 s to remove the medium, then quickly filled with 15 µl of an experimental buffer to each experimental well, and centrifuged at 200 g at room temperature for 5 s.
2.5 µl of the 8x compound working solution diluted in step 3 was added to corresponding test wells, which were centrifuged at 200 g for 5 s at room temperature, and incubated at 37° C. for 10 min.
A 4 uM Forskolin working solution (8x) was prepared.
The cell plate was taken out and equilibrated to room temperature, then filled with 2.5 µl of the 8x Forskolin working solution prepared in step 6 to corresponding test wells, followed by RT at 200 g for 5 s, and left to stand at 37° C. for 30 min.
A Eu-cAMP tracer and Uliaght-anti-cAMP were freeze-thawed, the Eu-cAMP tracer was diluted 50-fold with a detection buffer, and the Uliaght-anti-cAMP was dilutd 150-fold.
10 µl of the Eu-cAMP tracer was added to all experimental wells, then 10 µl of the detection buffer was added to NC wells, and 10 µl of the Uliaght-anti-cAMP was added to the remaining experimental wells.
The reaction plate was centrifuged at 200 g for 30 s at room temperature, and after standing at 25° C. for 1 h, data was collected using Envision.
Compound EC50 was calculated using a GraphPad nonlinear fitting formula: […]
X: Compound concentration log value; Y: HTRF ratio

[1] = metabolic stability in pooled human liver microsomes; conditions: pH 7.4
Description: (§1) Metabolic degradation of a test compound was analyzed using pooled human liver microsomes and male rat liver microsomes, respectively, at 37° C.
(§2) After pre-incubation at 37° C. for 5 min, NADPH (5 mM, 60 µL) was added to initiate a reaction. A fixed volume of the reaction mixture (30 µL) was sampled into the solution at fixed time points (0, 5, 15, 30, 60 min) to quench the reaction. After centrifugation (4000 rpm, 15 min), the supernatant (100 µL) was mixed with distilled water (100 µL) and then subjected to LC-MS/MS analysis to test the amount of the compound. A half-life was calculated using a first-order reaction kinetic equation (Ct = C0 × e^-ket, T½ = Ln2/ke).

[2] = metabolic stability in male rat liver microsomes; conditions: pH 7.4
Description: as §1, §2

rat CFA pain model [3] = assay: multi-dose oral pharmacodynamic study in rat CFA pain model (Von Frey PWT); format: in vivo
Description: The efficacy of Compound 1a and Compound 14 in the rat CFA pain model was evaluated using a mechanical allodynia method.
SD rats, 72 males, divided into 9 groups, were purchased from Beijing Vital River Laboratory Animal Technology Co., Ltd.
The experimental animals were adaptively reared for 3 to 7 days, and 8 of them were selected as a normal control group, and the other animals were injected with 50 µL of CFA in the center of the left hind paw for modeling. 24 hours after injection, the animals were tested for paw withdrawal threshold (PWT) basal values, and were divided into groups according to the basal values, which were solvent control group, indomethacin group, Compound 1a, 10 mpk group, Compound 1a, 30 mpk group, Compound 1a, 100 mpk group, Compound 14, 3 mpk group, Compound 14, 10 mpk group, and Compound 14, 30 mpk group, with 8 animals in each group. Subsequently, the animals were weighed and administered orally according to Table 6. All the animals were tested for paw withdrawal thresholds (PWT) using Von Frey 1, 2, and 4 hours after administration to further evaluate the efficacy of the compounds of the present invention.

rat CFA pain model [4] = assay: single-dose pharmacodynamic study in rat CFA pain model (Von Frey PWT); format: in vivo
Description: Each male SD rat (7-8 weeks old) was injected with 50 microliters of CFA in the center of the left hind paw. A PWT basal value test was conducted 24 hours after modeling, and the drugs were administered after randomization.
There were 8 animals in each group, and the animals were weighed and administered according to Table 4.
For all groups of animals, paw withdrawal thresholds (PWTs) of the animals were tested using Von Frey after 1 h and 3 h of single administration.

T1 sequence (P31391 whole entry): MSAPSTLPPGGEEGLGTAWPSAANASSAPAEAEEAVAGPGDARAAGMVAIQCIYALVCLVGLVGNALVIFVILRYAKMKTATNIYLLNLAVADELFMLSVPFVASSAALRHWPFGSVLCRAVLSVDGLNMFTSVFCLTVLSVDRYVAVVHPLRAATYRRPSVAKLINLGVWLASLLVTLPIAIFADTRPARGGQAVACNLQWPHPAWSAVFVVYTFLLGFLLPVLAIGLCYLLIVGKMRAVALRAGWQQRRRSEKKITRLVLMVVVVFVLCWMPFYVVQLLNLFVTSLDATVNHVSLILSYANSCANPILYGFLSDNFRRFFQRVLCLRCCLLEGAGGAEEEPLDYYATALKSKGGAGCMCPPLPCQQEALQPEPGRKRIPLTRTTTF

| EC50 (human SSTR4) [nM] | Structure (SMILES) | other results |
| --- | --- | --- |
| 36.7 | CC(C)(NC(=O)[C@H]1[C@@H]2CNC[C@@H]21)c1ncc2c(Sc3nccs3)cccn12 [Compound 4, (1R,5S,6R)-N-(2-(8-(Thiazol-2-Ylsulfanyl)Imidazo[1,5-a]Pyridin-3-yl)Prop-2-yl)-3-Azabicyclo[3.1.0]Hexane-6-Carboxamide] |  |
| 1.83 | CC(C)(NC(=O)[C@H]1[C@@H]2CNC[C@@H]21)c1ncc2c(SC3CCC3)cccn12 [Compound 12, (1R,5S,6R)-N-(2-(8-(Cyclobutylthio)Imidazo[1,5-a]Pyridin-3-yl)Prop-2-yl)-3-Azabicyclo[3.1.0]Hexane-6-Carboxamide] |  |
| 0.046 | CSc1cccc2c(C(C)(C)NC(=O)[C@H]3[C@@H]4CNC[C@@H]43)n[nH]c12 [Compound 15, (1R,5S,6R)-N-(2-(7-(Methylthio)-1H-Indazol-3-yl)Propan-2-yl)-3-Azabicyclo[3.1.0]Hexane-6-Carboxamide] | half-life at 1 µM ([1]; pooled human liver microsomes): > 3.11 h; half-life at 1 µM ([2]; rat liver microsomes): > 3.11 h |
| 2.47 | CC(C)(NC(=O)[C@H]1[C@@H]2CNC[C@@H]21)c1ncc2c(SCC3CCC3)cccn12 [Compound 11, (1R,5S,6R)-N-(2-(8-((Cyclobutylmethyl)Thio)Imidazo[1,5-a]Pyridin-3-yl)Propan-2-yl)-3-Azabicyclo[3.1.0]Hexane-6-Carboxamide] |  |
| 6.77 | CC(C)(CSc1ccccc1C(F)(F)F)NC(=O)[C@H]1[C@@H]2CNC[C@@H]21 [Compound 2, (1R,5S,6R)-N-(2-Methyl-1-((2-(Trifluoromethyl)Phenyl)Thio)Prop-2-yl)-3-Azabicyclo[3.1.0]Hexane-6-Carboxamide Formate] |  |
| 7.58 | CC(C)(NC(=O)[C@H]1[C@@H]2CNC[C@@H]21)c1ncc2c(SCC3CCCC3)cccn12 [Compound 13, (1R,5S,6R)-N-(2-(8-((Cyclopentylmethyl)Thio)Imidazo[1,5-a]Pyridin-3-yl)Propan-2-yl)-3-Azabicyclo[3.1.0]Hexane-6-Carboxamide] |  |
| 10.5 | CC(C)(NC(=O)[C@H]1[C@@H]2CNC[C@@H]21)c1ncc2c(SC3CCCC3)cccn12 [Compound 3, (1R,SS,6R)-N(2-(8-(Cyclopentylthio)Imidazo[1,5-a]Pyridin-3-yl)Prop-2-yl)-3-Azabicyclo[3.1.0]Hexane-6-Carboxamide] |  |
| 1.25 | CSc1ccccc1C(C)(C)NC(=O)[C@H]1[C@@H]2CNC[C@@H]21 [Compound 16, (1R,5S,6R)-N-(2-(2-(Methylthio)Phenyl)Propan-2-yl)-3-Azabicyclo[3.1.0]Hexane-6-Carboxamide] |  |
|  | COc1ccc2c(c1)c(CC(=O)O)c(C)n2C(=O)c1ccc(Cl)cc1 [Indomethacin, reference compound] | Paw withdrawal threshold (PWT(g)) (average) 0 hours (rat CFA pain model [3]; 30 mg/kg oral group, 0 hours): 3.012 g; inhibition of CFA-induced mechanical allodynia (in words) (rat CFA pain model [3]; 30 mg/kg oral, 2 and 4 hours after administration, FIG. 2): significantly inhibited; Paw withdrawal threshold (PWT(g)) (average) 1 hour (rat CFA pain model [3]; 30 mg/kg oral, 1 hour): 4.461 g; Paw withdrawal threshold (PWT(g)) (average) 2 hours (rat CFA pain model [3]; 30 mg/kg oral, 2 hours): 7.486 ** g; Paw withdrawal threshold (PWT(g)) (average) 4 hours (rat CFA pain model [3]; 30 mg/kg oral, 4 hours): 6.813 ** g; Mechanical allodynia test (PWT (g), mean) Baseline (rat CFA pain model [4]; 30 mg/kg P.O. group, baseline 24 h after CFA, before administration): 3.554 g; Mechanical allodynia test (PWT (g), mean) 1 hour (rat CFA pain model [4]; 30 mg/kg P.O., 1 hour after single administration): 4.448 g; inhibition of CFA-induced mechanical allodynia (in words) (rat CFA pain model [4]; 30 mg/kg P.O., 3 hours after administration, FIG. 1): significantly inhibit; Mechanical allodynia test (PWT (g), mean) 3 hours (rat CFA pain model [4]; 30 mg/kg P.O., 3 hours after single administration): 10.360 **** #### g |
| 0.5 | CC(C)(NC(=O)[C@H]1[C@@H]2CNC[C@@H]21)c1ncc2c(SCC3CC3)cccn12 [Compound 8, (1R,5S,6R)-N-(2-(8-((Cyclopropylmethyl)Thio)Imidazo[1,5-a]Pyridin-3-yl)Propan-2-yl)-3-Azabicyclo[3.1.0]Hexane-6-Carboxamide] |  |

| Structure (SMILES) | EC50 (human SSTR4) [nM] | other results |
| --- | --- | --- |
| CC(C)Sc1cccn2c(C(C)(C)NC(=O)[C@H]3[C@@H]4CNC[C@@H]43)ncc12 [Compound 7, (1R,5S,6R)-N-(2-(8-(Isopropylthio)Imidazo[1,5-a]Pyridin-3-yl)Prop-2-yl)-3-Azabicyclo[3.1.0]Hexane-6-Carboxamide] | 3.29 |  |
| CC(C)(NC(=O)[C@H]1[C@@H]2CNC[C@@H]21)c1ncc2c(SCc3ccccc3)cccn12 [Compound 9, (1R,5S,6R)-N-(2-(8-(Benzylthio)Imidazo[1,5-a]Pyridin-3-yl)Prop-2-yl)-3-Azabicyclo[3.1.0]Hexane-6-Carboxamide] | 3.42 |  |
| CCSc1cccn2c(C(C)(C)NC(=O)[C@H]3[C@@H]4CNC[C@@H]43)ncc12 [Compound 6, (1R,5S,6R)-N-(2-(8-(Ethylthio)Imidazo[1,5-a]Pyridin-3-yl)Prop-2-yl)-3-Azabicyclo[3.1.0]Hexane-6-Carboxamide Hydrochloride] | 0.73 |  |
| CSc1cccn2c(C(C)(C)NC(=O)[C@H]3[C@@H]4CNC[C@@H]43)ncc12.Cl [Compound 1, (1R,5S,6R)-N-(2-(8-(Methylthio)Imidazo[1,5-a]Pyridin-3-yl)Prop-2-yl)-3-Azabicyclo[3.1.0]Hexane-6-Carboxamide Hydrochloride] | 0.15 | half-life at 1 µM ([1]; microsomes): > 3.11 h; half-life at 1 µM ([2]; microsomes): > 3.11 h |
| CC(C)CSc1cccn2c(C(C)(C)NC(=O)[C@H]3[C@@H]4CNC[C@@H]43)ncc12 [Compound 10, (1R,5S,6R)-N-(2-(8-(Isobutylthio)Imidazo[1,5-a]Pyridin-3-yl)Prop-2-yl)-3-Azabicyclo[3.1.0]Hexane-6-Carboxamide] | 7.89 |  |
| CSc1nc(C(C)(C)NC(=O)[C@H]2[C@@H]3CNC[C@@H]32)n2cccc(C)c12 [Compound 17, (1R,5S,6R)-N-(2-(8-Methyl-1-(Methylthio)Imidazo[1,5-a]Pyridin-3-yl)Propan-2-yl)-3-Azabicyclo[3.1.0]Hexane-6-Carboxamide] | 0.068 | half-life at 1 µM ([1]; pooled human liver microsomes): > 3.11 h; half-life at 1 µM ([2]; rat liver microsomes): > 3.11 h |
| CSc1cccn2c(C(C)(C)NC(=O)C3C4CNCC43C)ncc12 (single isomer, unassigned) [Compound 5-P2, 1-methyl-N-(2-(8-(methylthio)imidazo[1,5-a]pyridin-3-yl)propan-2-yl)-3-azabicyclo[3.1.0]hexane-6-carboxamide] | 0.41 |  |
| CSc1cccn2c(C(C)(C)NC(=O)C3C4CNCC43C)ncc12 (single isomer, unassigned) [Compound 5-P1, 1-Methyl-N-(2-(8-(Methylthio)Imidazo[1,5-a]Pyridin-3-yl)Propan-2-yl)-3-Azabicyclo[3.1.0]Hexane-6-Carboxamide] | 1.25 |  |

Source: patent US20230192683A1, “FUSED RING COMPOUNDS, PREPARATION METHOD THEREFOR, PHARMACEUTICAL COMPOSITIONS AND USE THEREOF” (priority 2020, published 2023)
